Results reported in PMC4294348 (Oncotarget, 2014).

Assay: Motesanib plasma pharmacokinetics (LC-MS/MS)
Type: in vivo, human
Conditions: for Cmax / AUC / Tmax: human, plasma; for Cmax / AUC: po; for AUC: time 0 to 24 hours; for Tmax: listed as 'Mean'
Procedure: Motesanib PK was assessed by comparing week 1 versus week 4 or 5 (motesanib without and with trebananib, respectively). Serum samples for the evaluation of minimum and maximum observed trebananib concentrations in the plasma were collected immediately before dosing on day 1 of weeks 2, 3, 4, 5, 6, 8, and every 8 weeks thereafter until 4 weeks after the last dose of study treatment. In addition, intensive sampling was conducted at the end of infusion, and 6, 24, 48, and 96 hours following dosing on day 1 of weeks 4 or 5. The samples were analysed for trebananib concentrations employing a validated enzyme-linked immunosorbent assay.
For motesanib, postdose samples were taken at 0.5, 1, 4, 6, and 24 hours during weeks 1 and 5 (without and with trebananib coadministration, respectively). Motesanib plasma concentrations were assessed with a validated liquid chromatography/mass spectrometry (LC-MS/MS) method at Cedra Corporation (Austin, TX).

[1] = 75 mg, motesanib 75 mg oral QD without trebananib, mean
[2] = 125 mg, motesanib 125 mg oral QD without trebananib, mean
[3] = motesanib 75 mg oral QD with trebananib 3 mg kg^−1, mean
[4] = motesanib 125 mg oral QD with trebananib 3 mg kg^−1, mean

For `CC1(C)CNc2cc(NC(=O)c3cccnc3NCc3ccncc3)ccc21` [Motesanib], the Cmax [1] was 466 ng/mL, the AUC [1] was 2580 ng·h/mL and the Cmax [2] was 559 ng/mL. It also gave an AUC [2] of 3130 ng·h/mL, a Cmax [3] of 507 ng/mL and a Cmax [4] of 541 ng/mL. The AUC [3] was 3180 ng·h/mL, the AUC [4] was 3920 ng·h/mL and the Tmax (motesanib 75 mg oral QD with trebananib 3 mg kg^−1) was 1 h. The Tmax (motesanib 75 mg oral QD without trebananib) was 1.1 h, the Tmax (motesanib 125 mg oral QD without trebananib) was 1 h and the “Effect of trebananib on motesanib PK” value (motesanib 75 mg or 125 mg with trebananib 3 mg kg^−1) was “did not appear to be affected”. The CL (motesanib 75 mg oral QD without trebananib, mean) was 0.348 mL/min/kg.
